From patent US12679843B2, “Pyrrolopyrimidine amines as complement inhibitors” (BioCryst Pharmaceuticals, Inc., priority 2020, dated 2026) come the findings set out here.

This assay deals with Factor D (Homo sapiens, UniProt P00746). Description: Factor D esterolytic assay (Z-Lys-SBzl thioester substrate, DTNB, 405 nm). The assay is classed as biochemical. To be noted: substrate Z-Lys-SBzl 1.29 mM, 100 mM HEPES, 500 mM NaCl, pH 7.5, 10% DMSO, tested a minimum of three times. The method in brief:
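Run in pH 7.5 HEPES (100 mM) with 500 mM NaCl and 10% DMSO, with compound preincubated at room temperature or not before adding 1.29 mM Z-Lys-SBzl. Free thiol released by Factor D reacts with DTNB, and rate is followed at 405 nm minus 690 nm over 600 s. IC50 derives from rate-based inhibition, minimum three replicates.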

Each structure is given as a SMILES string. Bounds are passed on as bounds.

Chain of Factor D (P00746 26-253): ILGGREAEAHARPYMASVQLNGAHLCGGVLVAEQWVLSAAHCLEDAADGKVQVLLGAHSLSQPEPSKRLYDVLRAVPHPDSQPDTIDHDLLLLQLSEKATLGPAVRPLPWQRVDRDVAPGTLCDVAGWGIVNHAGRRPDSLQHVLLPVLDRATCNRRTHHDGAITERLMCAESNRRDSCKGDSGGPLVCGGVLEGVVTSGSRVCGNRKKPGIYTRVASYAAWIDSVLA

Take `C[C@@]12C[C@@H](C(=O)Nc3cccc(Br)n3)N(C(=O)Cn3c4ccc(Cl)cc4c4c(N)ncnc43)[C@@H]1C2` [Compound 237a, (1R,3S,5R)-2-(2-(4-amino-6-chloro-9H-pyrimido[4,5-b]indol-9-yl)acetyl)-N-(6-bromopyridin-2-yl)-5-methyl-2-azabicyclo[3.1.0]hexane-3-carboxamide]: the IC50 is below 100 nM.
The result for `COc1cc(Cl)cc2c3c(N)ncnc3n(CC(=O)N3[C@@H]4C[C@@H]4C[C@H]3C(=O)Nc3cccc(Br)n3)c12` [Compound 238g, (1R,3S,5R)-2-(2-(4-amino-6-chloro-8-methoxy-9H-pyrimido[4,5-b]indol-9-yl)acetyl)-N-(6-bromopyridin-2-yl)-2-azabicyclo[3.1.0]hexane-3-carboxamide] reads below 100 nM; that for `COc1cc(Cl)cc2c3c(N)ncnc3n(CC(=O)N3[C@H](C(=O)Nc4cccc(Br)n4)C[C@@]4(C)C[C@@H]34)c12` [Compound 239a, (1R,3S,5R)-2-(2-(4-amino-6-chloro-8-methoxy-9H-pyrimido[4,5-b]indol-9-yl)acetyl)-N-(6-bromopyridin-2-yl)-5-methyl-2-azabicyclo[3.1.0]hexane-3-carboxamide], below 100 nM.
In the case of `COC(=O)c1cc(OC)c2c(c1)c1c(N)ncnc1n2CC(=O)N1[C@@H]2C[C@@H]2C[C@H]1C(=O)Nc1cccc(Br)n1` [Compound 240g, methyl 4-amino-9-(2-((1R,3S,5R)-3-((6-bromopyridin-2-yl)carbamoyl)-2-azabicyclo[3.1.0]hexan-2-yl)-2-oxoethyl)-8-methoxy-9H-pyrimido[4,5-b]indole-6-carboxylate] it was below 100 nM; in that of `COC(=O)c1cc(OC)c2c(c1)c1c(N)ncnc1n2CC(=O)N1[C@H](C(=O)Nc2cccc(Br)n2)C[C@@]2(C)C[C@@H]12` [Compound 241a, methyl 4-amino-9-(2-((1R,3S,5R)-3-((6-bromopyridin-2-yl)carbamoyl)-5-methyl-2-azabicyclo[3.1.0]hexan-2-yl)-2-oxoethyl)-8-methoxy-9H-pyrimido[4,5-b]indole-6-carboxylate], below 100 nM.
In the case of `COc1cc([N+](=O)[O-])cc2c3c(N)ncnc3n(CC(=O)N3[C@@H]4C[C@@H]4C[C@H]3C(=O)Nc3cccc(Br)n3)c12` [Compound 242g, (1R,3S,5R)-2-(2-(4-amino-8-methoxy-6-nitro-9H-pyrimido[4,5-b]indol-9-yl)acetyl)-N-(6-bromopyridin-2-yl)-2-azabicyclo[3.1.0]hexane-3-carboxamide], the IC50 is below 100 nM.
As to `COc1cc([N+](=O)[O-])cc2c3c(N)ncnc3n(CC(=O)N3[C@H](C(=O)Nc4cccc(Br)n4)C[C@@]4(C)C[C@@H]34)c12` [Compound 243a, (1R,3S,5R)-2-(2-(4-amino-8-methoxy-6-nitro-9H-pyrimido[4,5-b]indol-9-yl)acetyl)-N-(6-bromopyridin-2-yl)-5-methyl-2-azabicyclo[3.1.0]hexane-3-carboxamide], the IC50 is below 100 nM.
Regarding `Nc1ncnc2c1c1cccc(-c3ccccc3)c1n2CC(=O)N1[C@@H]2C[C@@H]2C[C@H]1C(=O)Nc1cccc(Br)n1` [Compound 244d, (1R,3S,5R)-2-(2-(4-amino-8-phenyl-9H-pyrimido[4,5-b]indol-9-yl)acetyl)-N-(6-bromopyridin-2-yl)-2-azabicyclo[3.1.0]hexane-3-carboxamide], the IC50 was below 100 nM.
On to `C[C@@]12C[C@@H](C(=O)Nc3cccc(Br)n3)N(C(=O)Cn3c4ncnc(N)c4c4cccc(-c5ccccc5)c43)[C@@H]1C2` [Compound 245a, (1R,3S,5R)-2-(2-(4-amino-8-phenyl-9H-pyrimido[4,5-b]indol-9-yl)acetyl)-N-(6-bromopyridin-2-yl)-5-methyl-2-azabicyclo[3.1.0]hexane-3-carboxamide], for which the IC50 is below 100 nM.
Regarding `Nc1ncnc2c1c1cc(C(F)(F)F)ccc1n2CC(=O)N1C[C@H](F)C[C@H]1C(=O)Nc1cccc(Cl)n1` [Compound 246b, (2S,4R)-1-(2-(4-amino-6-(trifluoromethyl)-9H-pyrimido[4,5-b]indol-9-yl)acetyl)-N-(6-chloropyridin-2-yl)-4-fluoropyrrolidine-2-carboxamide], the IC50 was below 100 nM.
In the case of `CO[C@H]1C[C@@H](C(=O)Nc2cccc(Br)n2)N(C(=O)Cn2c3ccc(C(F)(F)F)cc3c3c(N)ncnc32)C1` [Compound 247d, (2S,4S)-1-(2-(4-amino-6-(trifluoromethyl)-9H-pyrimido[4,5-b]indol-9-yl)acetyl)-N-(6-bromopyridin-2-yl)-4-methoxypyrrolidine-2-carboxamide], the IC50 is 100 to 1000 nM.
Take `CO[C@@H]1C[C@@H](C(=O)Nc2cccc(Br)n2)N(C(=O)Cn2c3ccc(C(F)(F)F)cc3c3c(N)ncnc32)C1` [Compound 248d, (2S,4R)-1-(2-(4-amino-6-(trifluoromethyl)-9H-pyrimido[4,5-b]indol-9-yl)acetyl)-N-(6-bromopyridin-2-yl)-4-methoxypyrrolidine-2-carboxamide]: the IC50 was above 1000 nM.
The result for `COc1cccc2c1c1c(N)ncnc1n2CC(=O)N1[C@H](C(=O)Nc2nc(Br)ccc2C)C[C@@]2(C)C[C@@H]12` [Compound 249a, (1R,3S,5R)-2-(2-(4-amino-5-methoxy-9H-pyrimido[4,5-b]indol-9-yl)acetyl)-N-(6-bromo-3-methylpyridin-2-yl)-5-methyl-2-azabicyclo[3.1.0]hexane-3-carboxamide] reads below 100 nM; that for `N#Cc1ccc(CNC(=O)[C@@H]2CCCN2C(=O)Cn2c3ccccc3c3c(N)ncnc32)cc1` [Compound 250b, (S)-1-(2-(4-amino-9H-pyrimido[4,5-b]indol-9-yl)acetyl)-N-(4-cyanobenzyl)pyrrolidine-2-carboxamide], above 1000 nM.
The result for `Nc1ncnc2c1c1cc(C(F)(F)F)ccc1n2CC(=O)N1C(=O)OC[C@H]1C(=O)NCc1cccc(Cl)c1F` [Compound 251f, (S)-3-(2-(4-amino-6-(trifluoromethyl)-9H-pyrimido[4,5-b]indol-9-yl)acetyl)-N-(3-chloro-2-fluorobenzyl)-2-oxooxazolidine-4-carboxamide] reads 100 to 1000 nM; that for `COc1ccc2c(c1)c1c(N)ncnc1n2CC(=O)N1[C@H](C(=O)Nc2nc(Br)ccc2C)C[C@@]2(C)C[C@@H]12` [Compound 252a, (1R,3S,5R)-2-(2-(4-amino-6-methoxy-9H-pyrimido[4,5-b]indol-9-yl)acetyl)-N-(6-bromo-3-methylpyridin-2-yl)-5-methyl-2-azabicyclo[3.1.0]hexane-3-carboxamide], below 100 nM.
In the case of `COc1ccc2c3c(N)ncnc3n(CC(=O)N3[C@H](C(=O)Nc4nc(Br)ccc4C)C[C@@]4(C)C[C@@H]34)c2c1` [Compound 253a, (1R,3S,5R)-2-(2-(4-amino-7-methoxy-9H-pyrimido[4,5-b]indol-9-yl)acetyl)-N-(6-bromo-3-methylpyridin-2-yl)-5-methyl-2-azabicyclo[3.1.0]hexane-3-carboxamide] it was below 100 nM; in that of `COc1cccc2c3c(N)ncnc3n(CC(=O)N3[C@H](C(=O)Nc4nc(Br)ccc4C)C[C@@]4(C)C[C@@H]34)c12` [Compound 254a, (1R,3S,5R)-2-(2-(4-amino-8-methoxy-9H-pyrimido[4,5-b]indol-9-yl)acetyl)-N-(6-bromo-3-methylpyridin-2-yl)-5-methyl-2-azabicyclo[3.1.0]hexane-3-carboxamide], below 100 nM; in that of `Cc1ccc(-c2cc(C)c3c(c2)c2c(N)ncnc2n3CC(=O)N2[C@H](C(=O)Nc3cccc(Br)n3)C[C@@]3(C)C[C@@H]23)cc1` [Compound 255c, (1R,3S,5R)-2-(2-(4-amino-8-methyl-6-(p-tolyl)-9H-pyrimido[4,5-b]indol-9-yl)acetyl)-N-(6-bromopyridin-2-yl)-5-methyl-2-azabicyclo[3.1.0]hexane-3-carboxamide], below 100 nM.
With `Cc1ccc(-c2cc(C)c3c(c2)c2c(N)ncnc2n3CC(=O)N2[C@@H]3C[C@@H]3C[C@H]2C(=O)Nc2cccc(Br)n2)cc1` [Compound 256a, (1R,3S,5R)-2-(2-(4-amino-8-methyl-6-(p-tolyl)-9H-pyrimido[4,5-b]indol-9-yl)acetyl)-N-(6-bromopyridin-2-yl)-2-azabicyclo[3.1.0]hexane-3-carboxamide], the IC50 was below 100 nM.
In the case of `COc1cc(C)c2c(c1)c1c(N)ncnc1n2CC(=O)N1[C@@H]2C[C@@H]2C[C@H]1C(=O)Nc1cccc(Br)n1` [Compound 257g, (1R,3S,5R)-2-(2-(4-amino-6-methoxy-8-methyl-9H-pyrimido[4,5-b]indol-9-yl)acetyl)-N-(6-bromopyridin-2-yl)-2-azabicyclo[3.1.0]hexane-3-carboxamide] it was below 100 nM; in that of `COc1cc(C)c2c(c1)c1c(N)ncnc1n2CC(=O)N1[C@H](C(=O)Nc2cccc(Br)n2)C[C@@]2(C)C[C@@H]12` [Compound 258a, (1R,3S,5R)-2-(2-(4-amino-6-methoxy-8-methyl-9H-pyrimido[4,5-b]indol-9-yl)acetyl)-N-(6-bromopyridin-2-yl)-5-methyl-2-azabicyclo[3.1.0]hexane-3-carboxamide], below 100 nM.
In the case of `Nc1ncnc2c1c1cc(C(F)(F)F)ccc1n2CC(=O)N1[C@@H]2C[C@@H]2C[C@H]1C(=O)Nc1ccnc(Br)c1` [Compound 259d, (1R,3S,5R)-2-(2-(4-amino-6-(trifluoromethyl)-9H-pyrimido[4,5-b]indol-9-yl)acetyl)-N-(2-bromopyridin-4-yl)-2-azabicyclo[3.1.0]hexane-3-carboxamide], the IC50 lay in the range of 100 to 1000 nM.
In the case of `Nc1ncnc2c1c1cc(C(F)(F)F)ccc1n2CC(=O)N1[C@@H]2C[C@@H]2C[C@H]1C(=O)Nc1cncc(Br)n1` [Compound 260a, (1R,3S,5R)-2-(2-(4-amino-6-(trifluoromethyl)-9H-pyrimido[4,5-b]indol-9-yl)acetyl)-N-(6-bromopyrazin-2-yl)-2-azabicyclo[3.1.0]hexane-3-carboxamide] it was below 100 nM.
